We go through 11 molecules from US9334279B2, “Hepatitis C virus inhibitors” (BRISTOL-MYERS SQUIBB COMPANY, priority 2012, dated 2016).

The subject of one experiment is HCV GT1a(H77) replicon. Description: HCV replicon luciferase reporter assay, genotype 1a. It is filed as cell-based, HCV genotype 1a. As to conditions: Hepatitis C virus, 72 h, HUH-7 cells, Renilla luciferase, 3 days incubation, read-out: LE_1a (EC50, range). In a few lines: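 Huh-7 cells stably carried a GT1a(H77) Renilla luciferase replicon with NS3 P1496L and NS5A S2204I adaptive mutations. Luminescence was read after 2 h with 7.5 μM EnduRen, and EC50 came from a four-parameter logistic fit; CC50 came from multiplexed Cell Titer-Blue (8 h).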
(In general: A replicon is a self-replicating genome or part of one, used to study replication in cells.)

A further experiment relates to HCV GT1b(Con1) replicon. Description: HCV replicon luciferase reporter assay, genotype 1b. It is filed as cell-based, HCV genotype 1b. The settings on record: Hepatitis C virus, 72 h, HUH-7 cells, Renilla luciferase, 3 days incubation, read-out: LE_1b (EC50, range). In a few lines: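 HUH-7 cells stably carrying a Con1 GT1b replicon with Renilla luciferase and Ser1179Ile adaptive mutation; 3.0×10^3 cells/well, DMEM 4% FCS, 0.5% DMSO, twenty-point 3-fold titration, 3 days 37 °C. Luminescence 2 h after 7.5 μM EnduRen; EC50 by four-parameter logistic fit. CC50 from multiplexed Cell Titer-Blue fluorescence (8 h).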

Regarding `CC[C@@H]1O[C@H](C)CC/C=C\[C@@H]2C[C@@]2(C(=O)NS(=O)(=O)C2(C)CC2)NC(=O)[C@@H]2C[C@@H](Oc3cc(-c4ccc(OC(C)C)cc4)nc(-c4ccccn4)c3)CN2C(=O)[C@H]1NC(=O)OC1(C(F)(F)F)CCCOC1` (stereo partly drawn) [Compound 1037, 3-(trifluoromethyl)tetrahydro-2H-pyran-3-yl ((2R,6S,7S,9R,13aS,14aR,16aS,Z)-7-ethyl-2-((6-(4-isopropoxyphenyl)-[2,2′-bipyridin]-4-yl)oxy)-9-methyl-14a-(((1-methylcyclopropyl)sulfonyl)carbamoyl)-5,16-dioxo-2,3,5,6,7,9,10,11,13a,14,14a,15,16,16a-tetradecahydro-1H-cyclopropa[i]pyrrolo[1,2-e][1,5,8]oxadiazacyclopentadecin-6-yl)carbamate], the half-maximal effective concentration (EC50) (commonly the midpoint of the concentration-response curve) in the experiment on HCV GT1a(H77) replicon fell in the range of 1.01 to 5 nM; in the experiment with HCV GT1b(Con1) replicon, 0.1 to 0.5 nM.
The like results for `CC[C@@H]1OCCC/C=C\[C@@H]2C[C@@]2(C(=O)NS(=O)(=O)C2(C)CC2)NC(=O)[C@@H]2C[C@@H](Oc3cc(-c4ccc(OC(C)C)cc4)nc(-c4cncs4)c3)CN2C(=O)[C@H]1NC(=O)OC1(C(F)(F)F)CCCOC1` (stereo partly drawn) [Compound 1038, 3-(trifluoromethyl)tetrahydro-2H-pyran-3-yl ((2R,6S,7S,13aS,14aR,16aS,Z)-7-ethyl-2-((2-(4-isopropoxyphenyl)-6-(thiazol-5-yl)pyridin-4-yl)oxy)-14a-(((1-methylcyclopropyl)sulfonyl)carbamoyl)-5,16-dioxo-2,3,5,6,7,9,10,11,13a,14,14a,15,16,16a-tetradecahydro-1H-cyclopropa[i]pyrrolo[1,2-e][1,5,8]oxadiazacyclopentadecin-6-yl)carbamate] were, in that order, 1.01 to 5 nM and 0.51 to 1 nM.
With `CC[C@@H]1O[C@H](C)CC/C=C\[C@@H]2C[C@@]2(C(=O)NS(=O)(=O)C2(C)CC2)NC(=O)[C@@H]2C[C@@H](Oc3cc(-c4ccc(C(F)(F)F)cc4)nc(-c4nccs4)c3)CN2C(=O)[C@H]1NC(=O)OC(C)(C)C(F)(F)F` [Compound 1039, 1,1,1-trifluoro-2-methylpropan-2-yl ((2R,6S,7S,9R,13aS,14aR,16aS,Z)-7-ethyl-9-methyl-14a-(((1-methylcyclopropyl)sulfonyl)carbamoyl)-5,16-dioxo-2-((2-(thiazol-2-yl)-6-(4-(trifluoromethyl)phenyl)pyridin-4-yl)oxy)-2,3,5,6,7,9,10,11,13a,14,14a,15,16,16a-tetradecahydro-1H-cyclopropa[i]pyrrolo[1,2-e][1,5,8]oxadiazacyclopentadecin-6-yl)carbamate], the concentration for a half-maximal effect (EC50) with HCV GT1a(H77) replicon and in the experiment on HCV GT1b(Con1) replicon was 1.01 to 5 nM in each case.
`CC[C@@H]1O[C@H](C)CC/C=C\[C@@H]2C[C@@]2(C(=O)NS(=O)(=O)C2(C)CC2)NC(=O)[C@@H]2C[C@@H](Oc3cc(-c4ccc(C(F)(F)F)cc4)nc(-c4nccs4)c3)CN2C(=O)[C@H]1NC(=O)OC1(C(F)(F)F)CCCOC1` (stereo partly drawn) [Compound 1040, 3-(trifluoromethyl)tetrahydro-2H-pyran-3-yl ((2R,6S,7S,9R,13aS,14aR,16aS,Z)-7-ethyl-9-methyl-14a-(((1-methylcyclopropyl)sulfonyl)carbamoyl)-5,16-dioxo-2-((2-(thiazol-2-yl)-6-(4-(trifluoromethyl)phenyl)pyridin-4-yl)oxy)-2,3,5,6,7,9,10,11,13a,14,14a,15,16,16a-tetradecahydro-1H-cyclopropa[i]pyrrolo[1,2-e][1,5,8]oxadiazacyclopentadecin-6-yl)carbamate]: the concentration giving a half-maximal response (EC50) in the experiment with HCV GT1a(H77) replicon was 0.51 to 1 nM; with HCV GT1b(Con1) replicon it was 0.1 to 0.5 nM.
Taken in the same sequence, the figures for `CC(C)Oc1ccc(-c2cc(O[C@@H]3C[C@H]4C(=O)N[C@]5(C(=O)NS(=O)(=O)C6(C)CC6)C[C@H]5/C=C\CC[C@@H](C)C[C@@H](C)[C@H](NC(=O)OC5(C(F)(F)F)CCCOC5)C(=O)N4C3)cc(-c3nccs3)n2)cc1` (stereo partly drawn) [Compound 1041, 3-(trifluoromethyl)tetrahydro-2H-pyran-3-yl ((2R,6S,7R,9R,13aS,14aR,16aS,Z)-2-((2-(4-isopropoxyphenyl)-6-(thiazol-2-yl)pyridin-4-yl)oxy)-7,9-dimethyl-14a-(((1-methylcyclopropyl)sulfonyl)carbamoyl)-5,16-dioxo-1,2,3,5,6,7,8,9,10,11,13a,14,14a,15,16,16a-hexadecahydrocyclopropa[e]pyrrolo[1,2-a][1,4]diazacyclopentadecin-6-yl)carbamate] were 0.51 to 1 nM and 0.51 to 1 nM.
Regarding `Cc1cnc(-c2cc(O[C@@H]3C[C@H]4C(=O)N[C@]5(C(=O)NS(=O)(=O)C6(C)CC6)C[C@H]5/C=C\CC[C@@H](C)C[C@@H](C)[C@H](NC(=O)OC(C)(C)C(F)(F)F)C(=O)N4C3)ccn2)s1` [Compound 1043, 1,1,1-trifluoro-2-methylpropan-2-yl ((2R,6S,7R,9R,13aS,14aR,16aS,Z)-7,9-dimethyl-14a-(((1-methylcyclopropyl)sulfonyl)carbamoyl)-2-((2-(5-methylthiazol-2-yl)pyridin-4-yl)oxy)-5,16-dioxo-1,2,3,5,6,7,8,9,10,11,13a,14,14a,15,16,16a-hexadecahydrocyclopropa[e]pyrrolo[1,2-a][1,4]diazacyclopentadecin-6-yl)carbamate], the EC50 with HCV GT1a(H77) replicon lay in the range of 0.51 to 1 nM; with HCV GT1b(Con1) replicon it was 0.1 to 0.5 nM.
Turning to `Cc1cnc(-c2cc(O[C@@H]3C[C@H]4C(=O)N[C@]5(C(=O)NS(=O)(=O)C6(C)CC6)C[C@H]5/C=C\CC[C@@H](C)C[C@@H](C)[C@H](NC(=O)OC5(C(F)(F)F)CCCOC5)C(=O)N4C3)ccn2)s1` (stereo partly drawn) [Compound 1044, 3-(trifluoromethyl)tetrahydro-2H-pyran-3-yl ((2R,6S,7R,9R,13aS,14aR,16aS,Z)-7,9-dimethyl-14a-(((1-methylcyclopropyl)sulfonyl)carbamoyl)-2-((2-(5-methylthiazol-2-yl)pyridin-4-yl)oxy)-5,16-dioxo-1,2,3,5,6,7,8,9,10,11,13a,14,14a,15,16,16a-hexadecahydrocyclopropa[e]pyrrolo[1,2-a][1,4]diazacyclopentadecin-6-yl)carbamate], the EC50 lay in the range of 1.01 to 5 nM with HCV GT1a(H77) replicon and 0.51 to 1 nM in the experiment with HCV GT1b(Con1) replicon.
The like results for `Cc1csc(-c2cc(O[C@@H]3C[C@H]4C(=O)N[C@]5(C(=O)NS(=O)(=O)C6(C)CC6)C[C@H]5/C=C\CC[C@@H](C)C[C@@H](C)[C@H](NC(=O)OC(C)(C)C(F)(F)F)C(=O)N4C3)ccn2)n1` [Compound 1045, 1,1,1-trifluoro-2-methylpropan-2-yl ((2R,6S,7R,9R,13aS,14aR,16aS,Z)-7,9-dimethyl-14a-(((1-methylcyclopropyl)sulfonyl)carbamoyl)-2-((2-(4-methylthiazol-2-yl)pyridin-4-yl)oxy)-5,16-dioxo-1,2,3,5,6,7,8,9,10,11,13a,14,14a,15,16,16a-hexadecahydrocyclopropa[e]pyrrolo[1,2-a][1,4]diazacyclopentadecin-6-yl)carbamate] were, in that order, 1.01 to 5 nM and 0.1 to 0.5 nM.
As to `CC(C)Oc1ccc(-c2cc(O[C@@H]3C[C@H]4C(=O)N[C@]5(C(=O)NS(=O)(=O)C6(C)CC6)C[C@H]5/C=C\CC[C@@H](C)C[C@@H](C)[C@H](NC(=O)OC(C)(C)C(F)(F)F)C(=O)N4C3)cc(-c3nccs3)n2)cn1` [Compound 1046, 1,1,1-trifluoro-2-methylpropan-2-yl ((2R,6S,7R,9R,13aS,14aR,16aS,Z)-2-((6′-isopropoxy-6-(thiazol-2-yl)-[2,3′-bipyridin]-4-yl)oxy)-7,9-dimethyl-14a-(((1-methylcyclopropyl)sulfonyl)carbamoyl)-5,16-dioxo-1,2,3,5,6,7,8,9,10,11,13a,14,14a,15,16,16a-hexadecahydrocyclopropa[e]pyrrolo[1,2-a][1,4]diazacyclopentadecin-6-yl)carbamate], the concentration for a half-maximal effect (EC50) in the experiment with HCV GT1a(H77) replicon and in the experiment on HCV GT1b(Con1) replicon was 1.01 to 5 nM in each case.
Regarding `CC(C)Oc1ccc(-c2cc(O[C@@H]3C[C@H]4C(=O)N[C@]5(C(=O)NS(=O)(=O)C6(C)CC6)C[C@H]5/C=C\CC[C@@H](C)C[C@@H](C)[C@H](NC(=O)OC5(C(F)(F)F)CCCOC5)C(=O)N4C3)cc(-c3nccs3)n2)cn1` (stereo partly drawn) [Compound 1047, 3-(trifluoromethyl)tetrahydro-2H-pyran-3-yl ((2R,6S,7R,9R,13aS,14aR,16aS,Z)-2-((6′-isopropoxy-6-(thiazol-2-yl)-[2,3′-bipyridin]-4-yl)oxy)-7,9-dimethyl-14a-(((1-methylcyclopropyl)sulfonyl)carbamoyl)-5,16-dioxo-1,2,3,5,6,7,8,9,10,11,13a,14,14a,15,16,16a-hexadecahydrocyclopropa[e]pyrrolo[1,2-a][1,4]diazacyclopentadecin-6-yl)carbamate], the EC50 with HCV GT1a(H77) replicon lay within 1.01 to 5 nM; in the experiment on HCV GT1b(Con1) replicon, 0.51 to 1 nM.
Turning to `CC(C)Oc1ccc(-c2cc(O[C@@H]3C[C@H]4C(=O)N[C@]5(C(=O)NS(=O)(=O)C6(C)CC6)C[C@H]5/C=C\CC[C@@H](C)C[C@@H](C)[C@H](NC(=O)OC5(C(F)(F)F)CCCOC5)C(=O)N4C3)cc(-c3ncccn3)n2)cc1` (stereo partly drawn) [Compound 1048, 3-(trifluoromethyl)tetrahydro-2H-pyran-3-yl ((2R,6S,7R,9R,13aS,14aR,16aS,Z)-2-((2-(4-isopropoxyphenyl)-6-(pyrimidin-2-yl)pyridin-4-yl)oxy)-7,9-dimethyl-14a-(((1-methylcyclopropyl)sulfonyl)carbamoyl)-5,16-dioxo-1,2,3,5,6,7,8,9,10,11,13a,14,14a,15,16,16a-hexadecahydrocyclopropa[e]pyrrolo[1,2-a][1,4]diazacyclopentadecin-6-yl)carbamate], the EC50 in the experiment on HCV GT1a(H77) replicon and in the experiment with HCV GT1b(Con1) replicon was 1.01 to 5 nM throughout.
